Measurements published in US20250002507A1, “7,8-DIHYDRO-5H-1,6-NAPHTHYRIDINE DERIVATIVES AS POSITIVE ALLOSTERIC MODULATORS OF THE MUSCARINIC ACETYLCHOLINE RECEPTOR M4 FOR TREATING NEUROLOGICAL AND PSYCHIATRIC DISORDERS” (Vanderbilt University, priority 2021, published 2025).

Legend:
[1] = target: T1, Human M4 (Homo sapiens, UniProt P08173); assay: mAChR M4 cell-based functional assay (calcium flux, potentiation of EC20 acetylcholine response), hM4-Gqi5 CHO-K1 cells; conditions: Table 4; for Emax at 30 µM: CHO-K1, Human M4, % ACh maximum at 30 μM, read-out: Emax (% ACh maximum at 30 μM); for EC50: potentiation of EC20 acetylcholine response, calcium flux, CHO-K1 cells, read-out: Human M4 EC50
T1 construct: expressed in transfected cells
T1 sequence (P08173 1-479): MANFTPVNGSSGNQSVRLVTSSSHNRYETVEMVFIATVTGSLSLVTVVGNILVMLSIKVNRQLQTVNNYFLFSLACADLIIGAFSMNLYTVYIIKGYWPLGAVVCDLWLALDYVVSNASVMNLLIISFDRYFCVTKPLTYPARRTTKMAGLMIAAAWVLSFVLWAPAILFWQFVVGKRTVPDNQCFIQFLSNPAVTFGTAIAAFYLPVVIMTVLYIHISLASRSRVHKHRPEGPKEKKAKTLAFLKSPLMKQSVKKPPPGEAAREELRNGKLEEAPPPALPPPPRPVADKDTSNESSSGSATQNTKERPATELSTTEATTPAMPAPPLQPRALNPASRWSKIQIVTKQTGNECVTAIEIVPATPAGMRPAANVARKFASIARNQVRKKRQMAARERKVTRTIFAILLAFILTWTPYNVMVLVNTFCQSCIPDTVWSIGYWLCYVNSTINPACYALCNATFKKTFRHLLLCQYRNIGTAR
Procedure, shortened: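 CHO-K1 cells stably expressing human M4 with chimeric Gqi5, loaded with Fluo-4 AM 50 min at 37 °C; calcium flux read by FDSS. 11-point 1:3 compound curves added, then EC20 acetylcholine at 144 s; potentiation of the EC20 response fitted by four-parameter logistic to give EC50 and Emax.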

[2] = system: patients; conditions: patients treated with AChE inhibitor; cited from earlier work
[3] = system: Alzheimer's disease patients; conditions: Bodick et al. 1997; cited from earlier work

## Cc1c(N2CCc3ncc(Nc4ccncc4F)cc3C2)nn2cnnc2c1C [Compound 361, 6-(7,8-dimethyl-[1,2,4]triazolo[4,3-b]pyridazin-6-yl)-N-(3-fluoropyridin-4-yl)-5,6,7,8-tetrahydro-1,6-naphthyridin-3-amine]
[1]
  Emax at 30 µM: 100%
  EC50: 2 nM

## Cc1cc(Nc2cnc3c(c2)CN(c2nn4cnnc4cc2C)CC3)c(F)cn1 [Compound 362, N-(5-fluoro-2-methylpyridin-4-yl)-6-(7-methyl-[1,2,4]triazolo[4,3-b]pyridazin-6-yl)-5,6,7,8-tetrahydro-1,6-naphthyridin-3-amine]
[1]
  Emax at 30 µM: 97%
  EC50: 51 nM

## Cc1cc(Nc2cnc3c(c2)CN(c2nn4cnnc4c(C)c2C)CC3)c(F)cn1 [Compound 363, 6-(7,8-dimethyl-[1,2,4]triazolo[4,3-b]pyridazin-6-yl)-N-(5-fluoro-2-methylpyridin-4-yl)-5,6,7,8-tetrahydro-1,6-naphthyridin-3-amine]
[1]
  Emax at 30 µM: 93%
  EC50: 26 nM

## Cc1cnccc1Nc1cnc2c(c1)CN(c1nn3cnnc3cc1C)CC2 [Compound 364, 6-(7-methyl-[1,2,4]triazolo[4,3-b]pyridazin-6-yl)-N-(3-methylpyridin-4-yl)-5,6,7,8-tetrahydro-1,6-naphthyridin-3-amine]
[1]
  Emax at 30 µM: 83%
  EC50: 2500 nM

## Cc1cnccc1Nc1cnc2c(c1)CN(c1nn3cnnc3c(C)c1C)CC2 [Compound 365, 6-(7,8-dimethyl-[1,2,4]triazolo[4,3-b]pyridazin-6-yl)-N-(3-methylpyridin-4-yl)-5,6,7,8-tetrahydro-1,6-naphthyridin-3-amine]
[1]
  Emax at 30 µM: 63%
  EC50: 112 nM

## Nc1c2c(nc3ccccc13)CCCC2 [tacrine]
[2]
  elevated liver transaminases, share of patients: about 30%

## CCCCCCOc1nsnc1C1=CCCN(C)C1 [xanomeline]
[3]
  effect on psychotic behavioral symptoms: reduce psychotic behavioral symptoms
